Data taken from ChEMBL document CHEMBL2375296, “BCR-ABL tyrosine kinase inhibitor pharmacophore model derived from a series of phenylaminopyrimidine-based (PAP) derivatives” (Bioorg Med Chem Lett, 2013).

The compounds below were run against Bcr/Abl fusion protein (Homo sapiens, UniProt P00519) (assay: Inhibition of BCR-ABL kinase (unknown origin)).
Bcr/Abl fusion protein, sequence (P00519 whole entry, the tested form may be a part): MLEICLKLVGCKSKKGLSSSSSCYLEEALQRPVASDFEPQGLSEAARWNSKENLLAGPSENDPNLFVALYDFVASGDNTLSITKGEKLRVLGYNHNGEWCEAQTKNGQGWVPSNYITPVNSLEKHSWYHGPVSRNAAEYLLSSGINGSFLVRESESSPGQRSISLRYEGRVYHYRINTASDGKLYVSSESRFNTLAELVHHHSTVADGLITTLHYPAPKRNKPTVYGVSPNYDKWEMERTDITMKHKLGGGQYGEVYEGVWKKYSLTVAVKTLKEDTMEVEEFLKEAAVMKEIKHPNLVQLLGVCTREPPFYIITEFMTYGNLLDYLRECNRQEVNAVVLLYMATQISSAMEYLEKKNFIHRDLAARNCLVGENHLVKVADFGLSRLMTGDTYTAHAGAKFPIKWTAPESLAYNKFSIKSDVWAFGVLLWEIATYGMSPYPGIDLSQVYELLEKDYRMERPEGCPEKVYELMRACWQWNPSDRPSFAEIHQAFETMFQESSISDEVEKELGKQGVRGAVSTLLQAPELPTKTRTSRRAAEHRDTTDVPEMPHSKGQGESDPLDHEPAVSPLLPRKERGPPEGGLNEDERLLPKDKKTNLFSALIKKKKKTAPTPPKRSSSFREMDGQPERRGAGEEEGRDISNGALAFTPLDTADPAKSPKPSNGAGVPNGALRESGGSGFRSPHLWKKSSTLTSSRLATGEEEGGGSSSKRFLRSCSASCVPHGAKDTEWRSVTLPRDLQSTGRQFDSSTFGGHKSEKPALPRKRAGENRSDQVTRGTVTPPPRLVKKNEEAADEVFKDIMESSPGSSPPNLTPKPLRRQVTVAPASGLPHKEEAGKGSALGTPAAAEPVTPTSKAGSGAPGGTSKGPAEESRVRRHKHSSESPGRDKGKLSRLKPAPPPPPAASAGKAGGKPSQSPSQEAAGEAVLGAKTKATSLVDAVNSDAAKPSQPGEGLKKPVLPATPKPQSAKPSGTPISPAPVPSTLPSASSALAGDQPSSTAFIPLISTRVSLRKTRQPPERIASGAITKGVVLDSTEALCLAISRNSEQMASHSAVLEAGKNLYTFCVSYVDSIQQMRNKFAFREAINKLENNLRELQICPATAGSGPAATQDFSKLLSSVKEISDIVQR
Bcr/Abl fusion protein, sequence (P11274 whole entry, further chain, the tested form may be a part): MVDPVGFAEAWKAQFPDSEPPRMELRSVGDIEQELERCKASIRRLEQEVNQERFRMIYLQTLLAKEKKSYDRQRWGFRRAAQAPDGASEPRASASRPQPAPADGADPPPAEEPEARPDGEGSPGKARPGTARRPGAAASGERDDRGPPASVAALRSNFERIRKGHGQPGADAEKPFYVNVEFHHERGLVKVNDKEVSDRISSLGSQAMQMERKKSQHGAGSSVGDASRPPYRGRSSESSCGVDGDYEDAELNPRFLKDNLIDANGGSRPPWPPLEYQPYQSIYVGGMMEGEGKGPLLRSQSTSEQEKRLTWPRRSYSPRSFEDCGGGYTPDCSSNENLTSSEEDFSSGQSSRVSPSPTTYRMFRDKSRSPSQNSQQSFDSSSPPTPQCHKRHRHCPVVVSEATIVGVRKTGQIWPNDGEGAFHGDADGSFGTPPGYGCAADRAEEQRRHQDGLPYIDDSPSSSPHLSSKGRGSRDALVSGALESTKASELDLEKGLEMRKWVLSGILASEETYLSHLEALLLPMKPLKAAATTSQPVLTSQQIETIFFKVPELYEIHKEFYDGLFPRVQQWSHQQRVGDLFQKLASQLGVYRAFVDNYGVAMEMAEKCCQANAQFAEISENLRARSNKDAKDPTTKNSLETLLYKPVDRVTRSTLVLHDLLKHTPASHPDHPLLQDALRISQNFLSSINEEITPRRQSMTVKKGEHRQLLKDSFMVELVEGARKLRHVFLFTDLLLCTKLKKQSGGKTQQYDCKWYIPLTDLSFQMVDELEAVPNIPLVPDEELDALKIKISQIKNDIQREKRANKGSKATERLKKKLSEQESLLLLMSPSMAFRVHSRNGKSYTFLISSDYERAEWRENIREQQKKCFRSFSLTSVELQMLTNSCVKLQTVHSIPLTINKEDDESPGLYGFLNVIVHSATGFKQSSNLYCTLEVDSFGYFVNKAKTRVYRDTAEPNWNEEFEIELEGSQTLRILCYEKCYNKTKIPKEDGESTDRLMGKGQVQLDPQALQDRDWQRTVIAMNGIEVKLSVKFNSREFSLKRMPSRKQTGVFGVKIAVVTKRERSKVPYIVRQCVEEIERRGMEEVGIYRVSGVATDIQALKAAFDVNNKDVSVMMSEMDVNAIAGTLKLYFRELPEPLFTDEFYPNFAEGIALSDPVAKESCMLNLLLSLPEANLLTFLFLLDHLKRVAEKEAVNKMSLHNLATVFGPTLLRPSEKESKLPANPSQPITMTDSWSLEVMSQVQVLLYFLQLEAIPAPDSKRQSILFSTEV
Format: protein assay
`Cc1ccc(NC(=O)c2ccc(/N=N/N(C)C)cc2)cc1Nc1nccc(-c2cccnc2)n1` was tested, and the IC50 was 2190 nM.
`Nc1ccc(C(=O)Nc2cccc(Nc3nccc(-c4cccnc4)n3)c2)cc1` gave an IC50 of 9770 nM.
Compound `Cc1ccc(NC(=O)c2ccc(/N=N/N(C)CCCl)cc2)cc1Nc1nccc(-c2cccnc2)n1` has an IC50 of 17400 nM.
For `Cc1ccc(NC(=O)c2ccc(CN3CCC(N(C)C)C3)c(C(F)(F)F)c2)cc1Nc1nccc(-c2cncnc2)n1` (stereo not drawn), the IC50 was 3.98 nM.
With `Cc1ccc(NC(=O)Nc2ccc(N(C)C)cc2)cc1Nc1nccc(-c2cccnc2)n1` the IC50 was 10000 nM.
For `Cc1ccc(NC(=O)N2CCN(C)CC2)cc1Nc1nccc(-c2cccnc2)n1`, the IC50 was 5010 nM.
For `CCN(CC)c1ccc(NC(=O)Nc2ccc(C)c(Nc3nccc(-c4cccnc4)n3)c2)cc1`, the IC50 was 10000 nM.
`Cc1ccc(NC(=O)c2ccc3ccccc3c2)cc1Nc1nccc(-c2cccnc2)n1` gave an IC50 of 200 nM.
`Cc1ccc(NC(=O)c2ccc(CN3CCN(C)CC3)c(I)c2)cc1Nc1nccc(-c2cccnc2)n1` was tested, and the IC50 was 10 nM.
Work on `Cc1ccc(NC(=O)c2ccc(CN3CC(N(C)C)C3)c(C(F)(F)F)c2)cc1Nc1nccc(-c2cncnc2)n1` yielded an IC50 of 17 nM.
Compound `Cc1ccc(NC(=O)c2ccccc2)cc1Nc1nccc(-c2cccnc2)n1` has an IC50 of 398 nM.
Compound `Cc1ccc(NC(=O)c2ccc(Cl)cc2)cc1Nc1nccc(-c2cccnc2)n1` has an IC50 of 794 nM.
`Cc1ccc(NC(=O)c2ccc(CN3CCC(CN(C)C)C3)c(C(F)(F)F)c2)cc1Nc1nccc(-c2cncnc2)n1` (stereo not drawn) gave an IC50 of 11 nM.
Compound `CC(C)(NC(=O)c1cc2c(NC(=O)c3ccc(CN4CCCCC4)cc3)n[nH]c2s1)c1ccccc1` has an IC50 of 20.9 nM.
With `CN1CCN(c2ccc(C(=O)Nc3n[nH]c4sc(C(=O)NC(C)(C)c5ccccc5)cc34)cc2)CC1` the IC50 was 4.07 nM.
`Cc1ccc(NC(=O)NCc2cccc(Cl)c2)cc1Nc1nccc(-c2cccnc2)n1` gave an IC50 of 1000 nM.
Compound `Cc1ccc(-c2ccnc(Nc3cccc(OC(F)(F)C(F)F)c3)n2)cc1` has an IC50 of 50100 nM.
Compound `COCCN/N=N/c1cccc(Nc2cc(-c3cccnc3)ncn2)c1` has an IC50 of 5370 nM.
`c1cc(CCN2CCOCC2)cc(Nc2nccc(-c3cccnc3)n2)c1` was tested, and the IC50 was 10000 nM.
For `COCCN(C)/N=N/c1ccc(C(=O)Nc2cccc(Nc3nccc(-c4cccnc4)n3)c2)cc1`, the IC50 was 33200 nM.
`NCCCCNC(=O)c1cccc(Nc2nccc(-c3cccnc3)n2)c1` gave an IC50 of 398 nM.
In the case of `O=C(Nc1cccc(Nc2nccc(-c3cccnc3)n2)c1)C1=CC=CCC1=S`, the IC50 is reported as 302 nM.
Work on `CCCCCCC(=O)Nc1cccc(Nc2nccc(-c3cccnc3)n2)c1` yielded an IC50 of 200 nM.
For `O=C(Nc1cccc(Nc2nccc(-c3cccnc3)n2)c1)c1ccccc1`, the IC50 was 398 nM.
Compound `Cc1ccc(N)cc1Nc1nccc(-c2cccnc2)n1` has an IC50 of 1510 nM.
`c1cncc(-c2ccnc(Nc3cccc(-n4ccnc4)c3)n2)c1` gave an IC50 of 3310 nM.
`O=C(Nc1cccc(Nc2nccc(-c3cccnc3)n2)c1)c1ccccn1` gave an IC50 of 3800 nM.
Compound `NCCCn1ccc2c(-c3ccnc(Nc4cccc(OC(F)(F)C(F)F)c4)n3)cccc21` has an IC50 of 347 nM.
Work on `COc1ccccc1C(=O)Nc1cccc(Nc2nccc(-c3cccnc3)n2)c1` yielded an IC50 of 1910 nM.
For `Clc1cccc(Nc2nccc(-c3cccnc3)n2)c1`, the IC50 was 1510 nM.
`Cc1ccc(NC(=O)c2ccc(N)cc2)cc1Nc1nccc(-c2cccnc2)n1` showed an IC50 of 67600 nM.
`Cc1cccc(Nc2nccc(-c3cccnc3)n2)c1` showed an IC50 of 1820 nM.
For `Cc1ccc(NC(=O)NCCN2CCCC2)cc1Nc1nccc(-c2cccnc2)n1`, the IC50 was 8910 nM.
In the case of `CCN(CC)c1cccc(NC(=O)Nc2ccc(C)c(Nc3nccc(-c4cccnc4)n3)c2)c1`, the IC50 is reported as 1000 nM.
For `Cc1ccc(NC(=O)c2ccc(CN3CCN(C)CC3)c(Cl)c2)cc1Nc1nccc(-c2cccnc2)n1`, the IC50 was 10 nM.
`COc1ccccc1C(=O)Nc1ccc(C)c(Nc2nccc(-c3cccnc3)n2)c1` was tested, and the IC50 was 794 nM.
`O=C(Nc1cccc(Nc2nccc(-c3cccnc3)n2)c1)c1cccnc1` gave an IC50 of 151 nM.
In the case of `O=C(Nc1cccc(Nc2nccc(-c3cccnc3)n2)c1)c1ccc(F)cc1`, the IC50 is reported as 200 nM.
For `CC(=O)Nc1ccc(C)c(Nc2nccc(-c3cccnc3)n2)c1`, the IC50 was 5750 nM.
In the case of `Cc1ccc(NC(=O)Nc2cccc(N(C)C)c2)cc1Nc1nccc(-c2cccnc2)n1`, the IC50 is reported as 575 nM.
In the case of `CCC(=O)Nc1ccc(Sc2nc(Nc3cc(C)[nH]n3)cc(N3CCN(C)CC3)n2)cc1`, the IC50 is reported as 603 nM.
For `CN1CCN(c2ccc(C(=O)Nc3[nH]nc4c3CN(C(=O)Cc3cccs3)C4)cc2)CC1`, the IC50 was 64.6 nM.
Work on `FC(F)C(F)(F)Oc1cccc(Nc2nccc(-c3c[nH]c4ccccc34)n2)c1` yielded an IC50 of 372 nM.
For `O=C(Nc1cccc(Nc2nccc(-c3cccnc3)n2)c1)c1ccncc1`, the IC50 was 501 nM.
For `FC(F)C(F)(F)Oc1cccc(Nc2nccc(-c3ccncc3)n2)c1`, the IC50 was 100000 nM.
`O=[N+]([O-])c1cccc(Nc2nccc(-c3ccncc3)n2)c1` was tested, and the IC50 was 61700 nM.
`O=C(O)c1ccccc1C(=O)Nc1cccc(Nc2nccc(-c3cccnc3)n2)c1` showed an IC50 of 2000 nM.
In the case of `O=[N+]([O-])c1cccc(Nc2nccc(-c3cccnc3)n2)c1`, the IC50 is reported as 33900 nM.
For `COC(=O)c1cccc(Nc2nccc(-c3cccnc3)n2)c1`, the IC50 was 5130 nM.
`CN1CCN(Cc2ccc(C(=O)Nc3cccc(Nc4nccc(-c5cccnc5)n4)c3)cc2)CC1` showed an IC50 of 100 nM.
`Nc1cccc(Nc2nccc(-c3ccncc3)n2)c1` showed an IC50 of 603 nM.
Work on `Nc1cccc(Nc2nccc(-c3cccnc3)n2)c1` yielded an IC50 of 708 nM.
`O=C(O)c1cccc(Nc2nccc(-c3cccnc3)n2)c1` gave an IC50 of 7940 nM.
Compound `O=C(Nc1cccc(Nc2nccc(-c3cccnc3)n2)c1)C1CCCCC1` has an IC50 of 447 nM.
`c1cc(Nc2nccc(-c3cccnc3)n2)cc(OCCn2ccnc2)c1` showed an IC50 of 1000 nM.
`N#Cc1ccc(C(=O)Nc2cccc(Nc3nccc(-c4cccnc4)n3)c2)cc1` gave an IC50 of 1290 nM.
Work on `Cc1ccc(C(=O)Nc2cccc(Nc3nccc(-c4cccnc4)n3)c2)cc1` yielded an IC50 of 1000 nM.
`O=[N+]([O-])c1cccc(Nc2nccc(-c3ccccn3)n2)c1` gave an IC50 of 1200 nM.
